The text below walks through data of BindingDB's records for patent US12065430 (Taiho Pharmaceutical, 2024).

What is called pIC50 is −log10 of the IC50, conventionally taken in molar units. Read a low pIC50 as a large IC50.

pIC50: −log10 of the molar value.

T1 sequence (P01116 whole entry G12C): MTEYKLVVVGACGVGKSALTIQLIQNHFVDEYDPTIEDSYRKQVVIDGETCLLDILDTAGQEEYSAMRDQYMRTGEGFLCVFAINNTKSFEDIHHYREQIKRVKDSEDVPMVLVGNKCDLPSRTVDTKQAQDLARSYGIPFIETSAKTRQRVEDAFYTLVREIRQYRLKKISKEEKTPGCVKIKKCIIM
T1 sequence (Q07889 564-1049): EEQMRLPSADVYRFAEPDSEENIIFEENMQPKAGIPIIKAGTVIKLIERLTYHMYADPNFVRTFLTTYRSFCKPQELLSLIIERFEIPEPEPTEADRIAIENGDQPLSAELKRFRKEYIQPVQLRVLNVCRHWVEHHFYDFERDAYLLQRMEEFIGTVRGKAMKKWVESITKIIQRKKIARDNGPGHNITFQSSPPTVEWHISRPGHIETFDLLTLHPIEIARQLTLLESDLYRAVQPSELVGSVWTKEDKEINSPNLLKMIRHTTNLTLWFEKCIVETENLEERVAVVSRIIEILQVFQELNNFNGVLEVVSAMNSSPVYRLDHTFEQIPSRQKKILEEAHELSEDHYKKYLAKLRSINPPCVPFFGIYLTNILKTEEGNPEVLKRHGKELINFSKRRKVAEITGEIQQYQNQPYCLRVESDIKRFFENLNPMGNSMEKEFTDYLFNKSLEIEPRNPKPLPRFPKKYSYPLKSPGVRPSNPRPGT

The test concerns the target T1, Son of sevenless homolog 1 [564-1049]/GTPase KRas [G12C] (UniProt P01116+Q07889, G12C).
T1 construct: 564-1049
The experiment in a line: Evaluation of Inhibitory Activity of Compounds on KRAS G12C Nucleotide (GDP-GTP) Exchange Reaction. The procedure: The inhibitory activity of compounds on exchange reaction of GDP into GppNHp in Bodipy (trademark) FL-bound KRAS G12C was examined by fluorescence measurement using human recombinant KRAS G12C and SOS1 proteins.For the preparation of KRAS G12C to which Bodipy FL GDP was bound, first, […] KRAS G12C (amino acid region: 1-169) and 1 mM Bodipy FL GDP (Invitrogen, G22360) were incubated for 1 hour in a buffer (20 mM Tris-HCl (pH 7.5), 50 mM NaCl, 1 mM DTT) in ice in the presence of 2.5 mM EDTA. Thereafter, MgCl2 with a final concentration of 10 mM was added, and the mixture was incubated at room temperature for 30 minutes. The protein was allowed to pass through a NAP-5 column to remove free nucleotides and was used for compound evaluation.For the measurement of the inhibitory activity of compounds on nucleotide exchange reaction, first, the compound of the present invention was diluted stepwise with dimethyl sulfoxide (DMSO). Subsequently, a solution of the gradually diluted compound of the present invention in DMSO (the final concentration of DMSO: 5%) and KRAS G12C (25 nM) bound to Bodipy FL GDP were added to a reaction buffer (20 mM Tris-HCl (pH 7.5), 100 mM NaCl, 1 mM MgCl2, 2 mM DTT, 0.1% Tween20), followed by preincubation at 25° C. for 4 hours. Thereafter, Son of Sevenless Homolog 1 (SOS1, amino acid region: 564-1049) and GppNHp (GMPPNP, Jena Bioscience GmbH, NU-401-50) were added such that their final concentration was 100 nM and 1 μM respectively, followed by reaction for 30 minutes. The change in fluorescence intensity of Bodipy FL (excitation wavelength: 485 nm, fluorescence wavelength: 520 nm) immediately after the start of reaction and after 30 minutes from the start of reaction was standardized. The signal value for only DMSO was determined to be 0% inhibition, and the signal value for no addition of GppNHp was determined to be 100% inhibition. The compound concentration at which 50% inhibition is achieved was determined to be IC50 (nM), and was calculated.
The compound `C=CC(=O)N1CC(NC(=O)c2c(C(F)F)nc(CNc3n[nH]c4cc(Cl)c(C(C)(C)C)cc34)n2CC2CCCN2C(C)C)C1` (centres undefined) [US12065430, Example 95] had a pIC50 of 7.36. The result for `C=CC(=O)N1CC(NC(=O)c2c(C(F)F)nc(CNc3n[nH]c4cc(Cl)c(C(C)(C)C)cc34)n2C2CCN(C(C)=O)C2)C1` (centres undefined) [US12065430, Example 96] reads 8.40. For `C=CC(=O)N1CC(NC(=O)c2c(Cl)nc(CNc3n[nH]c4cc(Cl)c(C(C)(C)C)cc34)n2C2CC=CC2)C1` [US12065430, Example 98], the pIC50 is 8.15. Take `C=CC(=O)N1CC(NC(=O)c2c(Cl)nc(CNc3n[nH]c4cc(Cl)c(C(C)(C)C)cc34)n2[C@@H]2C[C@@H](O)[C@@H](O)C2)C1` [US12065430, Example 99]: the pIC50 was 8.15. Then `C=CC(=O)N1CC(NC(=O)c2c(Cl)nc(CNc3n[nH]c4cc(Cl)c(C(C)(C)C)cc34)n2CC(F)F)C1` [US12065430, Example 100], with 7.85; and `C=CC(=O)N1CC(NC(=O)c2c(Cl)nc(CNc3n[nH]c4cc(Cl)c(C(C)(C)C)cc34)n2C2CCOCC2)C1` [US12065430, Example 101], with 8.15; and `C=CC(=O)N1CC(NC(=O)c2c(Cl)nc(CNc3n[nH]c4cc(Cl)c(C(C)(C)C)cc34)n2C2CCN(C)CC2)C1` [US12065430, Example 103], with 8.30. In the case of `C=CC(=O)N1CC(NC(=O)c2c(Cl)nc(CNc3n[nH]c4cc(Cl)c(C(C)(C)C)cc34)n2C2CCCOC2)C1` (centres undefined) [US12065430, Example 104], the pIC50 is 8.05.

`C=CC(=O)N1CC(NC(=O)c2c(Cl)nc(CNc3n[nH]c4cc(Cl)c(C(C)(C)C)cc34)n2C2CCCC2)C1` [US12065430, Example 105] gave a pIC50 of 8.10. Take `C=CC(=O)N1CC(NC(=O)c2c(Cl)nc(CNc3n[nH]c4cc(Cl)c(C(C)(C)C)cc34)n2C2CN(C(=O)OC(C)(C)C)C2)C1` [US12065430, Example 106]: the pIC50 is 8.10.

In turn, `C=CC(=O)N1CC(NC(=O)c2c(Cl)nc(CNc3n[nH]c4cc(Cl)c(C(C)(C)C)cc34)n2C2CN(C(C)=O)C2)C1` [US12065430, Example 108] showed a pIC50 of 8.05.

`C=CC(=O)N1CC(NC(=O)c2c(Cl)nc(CNc3n[nH]c4cc(Cl)c(C(C)(C)C)cc34)n2C2CCCCC2)C1` [US12065430, Example 109] had a negative-log IC50 (pIC50) of 7.64.

`C=CC(=O)N1CC(NC(=O)c2c(Cl)nc(CNc3n[nH]c4cc(Cl)c(C(C)(C)C)cc34)n2CC2CCCC2)C1` [US12065430, Example 110] showed a negative-log IC50 (pIC50) of 8.05.

Turning to `C=CC(=O)N1CC(NC(=O)c2c(Cl)nc(CNc3n[nH]c4cc(Cl)c(C(C)(C)C)cc34)n2[C@H]2C[C@H](C)CC[C@H]2C(C)C)C1` [US12065430, Example 111], the negative logarithm of the IC50 (pIC50) is 7.82. Take `C=CC(=O)N1CC(NC(=O)c2c(Cl)nc(CNc3n[nH]c4cc(Cl)c(C(C)(C)C)cc34)n2C2CCCN(CC(F)F)C2)C1` (centres undefined) [US12065430, Example 117]: the pIC50 is 8.05. Then `C=CC(=O)N1CC(NC(=O)c2c(Cl)nc(CNc3n[nH]c4cc(Cl)c(C(C)(C)C)cc34)n2C2CCCN(C)C2)C1` (centres undefined) [US12065430, Example 118], with 8.30; and `C=CC(=O)N1CC(NC(=O)c2c(Cl)nc(CNc3n[nH]c4cc(Cl)c(C(C)(C)C)cc34)n2[C@@H]2CCN(CCOC)C2)C1` [US12065430, Example 119], with 7.96. With `C=CC(=O)N1CC(NC(=O)c2c(Cl)nc(CNc3n[nH]c4cc(Cl)c(C(C)(C)C)cc34)n2[C@@H]2CCN(C3CC3)C2)C1` [US12065430, Example 120], the pIC50 is 8.22.

The compound `C=CC(=O)N1CC(NC(=O)c2c(Cl)nc(CNc3n[nH]c4cc(Cl)c(C(C)(C)C)cc34)n2[C@@H]2CCN(C3COC3)C2)C1` [US12065430, Example 121] had a negative logarithm of the IC50 (pIC50) of 8.30. As for `C=CC(=O)N1CC(NC(=O)c2c(Cl)nc(CNc3n[nH]c4cc(Cl)c(C(C)(C)C)cc34)n2[C@@H]2CCN(Cc3ccccc3)C2)C1` [US12065430, Example 122], the pIC50 is 8.22.

Take `C=CCN1CC[C@@H](n2c(CNc3n[nH]c4cc(Cl)c(C(C)(C)C)cc34)nc(Cl)c2C(=O)NC2CN(C(=O)C=C)C2)C1` [US12065430, Example 123]: the negative-log IC50 (pIC50) was 8.05. The result for `C=CC(=O)N1CC(NC(=O)c2c(Cl)nc(CNc3n[nH]c4cc(Cl)c(C(C)(C)C)cc34)n2[C@@H]2CCN(c3ccccn3)C2)C1` [US12065430, Example 124] reads 8.22; that for `C=CC(=O)N1CC(NC(=O)c2c(Cl)nc(CNc3n[nH]c4cc(Cl)c(C(C)(C)C)cc34)n2[C@@H]2CCN(CC(F)F)[C@H]2C)C1` [US12065430, Example 125], 7.89; that for `C=CC(=O)N1CC(NC(=O)c2c(Cl)nc(CNc3n[nH]c4cc(Cl)c(C(C)(C)C)cc34)n2[C@@H]2C[C@@H](C)N(CC(F)F)C2)C1` [US12065430, Example 126], 8.40.
